The record followed here is patent publication US7795456B2, “Insecticidal N-substituted sulfoximines” (Dow AgroSciences LLC, priority 2004, dated 2010).

The subject of data set [1] is Colorado potato beetle (Leptinotarsa decemlineata). Briefly: Insecticidal test for Colorado potato beetle, foliar spray on tomato. The data set is classed as in vivo. The note with it: for CPB 50: % control at 50 ppm against Colorado potato beetle in foliar spray tests: 5 days, Corrected % Control. As for the experimental part:
Insecticidal Test for Colorado Potato Beetle (Leptinotarsa decemlineata).
Tomato seedlings at the growth stage of three or four expanding leaves were used. […] Treated plants were held in the laboratory for approximately 3 h to allow drying before the upper portion (with two or three leaves) of a plant was cut and placed in a 10×2.5-cm petri dish containing approximately 10 mL of solidified 1% agar at the bottom. Five 2nd or 3rd instar larvae were placed on the treated plant tissue, and the petri dishes were covered and held in an incubator at 25° C. At 5 days following treatment, insecticidal activity was evaluated by counting the number of live larvae in each dish.

Data set [2] has as its system beet armyworm (Spodoptera exigua). Briefly: Insecticidal test for beet armyworm in injection assays. The note with it: 1 h, read-out: BAW SYM: % showing intoxicated symptoms at 10 μg/larva against beet armyworm in injection tests.
The test system of data set [3] is cotton aphid (Aphis gossypii). Briefly: Insecticidal test for cotton aphid, foliar spray on squash. The note with it: for pest or weed control at 50 ppm / pest or weed control at 200 ppm: Aphis gossypii, foliar, 72 h; for pest or weed control at 50 ppm: read-out: CA 50: % control at 50 ppm against cotton aphid in foliar spray tests; for pest or weed control at 200 ppm: read-out: CA 200: % control at 200 ppm against cotton aphid in foliar spray tests.

The test system of data set [4] is yellow fever mosquito (Aedes aegypti) larvae. Briefly: whole plant or invertebrate. The note with it: 72 h, read-out: YFM 26: % control at 26 ppm against yellow fever mosquito in submerge tests. The class given is in vivo.
Data set [5] has as its system fruit fly (Drosophila melanogaster). The note with it: for FF SYM: % showing intoxicated symptoms at 25 μg/cm2 against fruit fly in dietary tests: 25 μg/cm2, 4 h; for FF 25: % mortality at 25 μg/cm2 against fruit fly in dietary tests: 25 μg/cm2, 48 h.
Data set [6] deals with sweet potato whitefly (Bemisia tabaci). Briefly: Insecticidal test for sweet potato whitefly, foliar spray on cotton. The note with it: for pest or weed control at 200 ppm: Bemisia tabaci, in Gossypium hirsutum, foliar, read-out: SPW 200: % control at 200 ppm against sweet potato whitefly in foliar spray tests.
The subject of data set [7] is beet armyworm (Spodoptera exigua). The note with it: 50 μg/cm2, second-instar larvae, 5 days.
For data set [8], the system named is corn earworm (Helicoverpa zea). The note with it: 50 μg/cm2, second-instar larvae, 5 days.
Data set [9] has as its system green peach aphid (Myzus persicae). Briefly: Insecticidal test for green peach aphid, foliar spray on cabbage seedlings. The note with it: rundown assay, 3 days.

Take `N#CN=[S@@]1(=O)CCCC1Cc1ccc(Cl)nc1` (stereo partly shown) [Compound 20]: in [1] (0.78 ppm, rundown assay), the “% Control at ppm, against Colorado potato beetle: 0.78” value is “F (Less than 50)”. Besides, in data set [1] (3.13 ppm, rundown assay), the “% Control at ppm, against Colorado potato beetle: 3.13” value was “F (Less than 50)”. Besides, in [1] (12.5 ppm, rundown assay), the “% Control at ppm, against Colorado potato beetle: 12.5” value is reported as “A (90-100)”. In addition, in data set [1] (50 ppm), the “CPB 50: % control at 50 ppm against Colorado potato beetle in foliar spray tests” value is recorded as “A (90-100)”. Moreover, the “% Control at ppm, against Colorado potato beetle: 50” value in [1] (50 ppm, rundown assay) is recorded as “A (90-100)”. Also, in data set [2], the pest or weed control at 0.01 mg was 80 to 89%. Further, the “% Control at ppm, against cotton aphid: 0.049” value in data set [3] (0.049 ppm, rundown assay) is given as “B (80-89)”. In data set [3] (0.195 ppm, rundown assay), the “% Control at ppm, against cotton aphid: 0.195” value is on record as “A (90-100)”. The “% Control at ppm, against cotton aphid: 0.78” value in data set [3] (0.78 ppm, rundown assay) was “A (90-100)”. In data set [3] (3.12 ppm, rundown assay), the “% Control at ppm, against cotton aphid: 3.12” value is “A (90-100)”. Further, the “% Control at ppm, against cotton aphid: 12.5” value in data set [3] (12.5 ppm, rundown assay) was “A (90-100)”. Further, the “% Control at ppm, against cotton aphid: 50” value in [3] (50 ppm, rundown assay) is recorded as “A (90-100)”. In addition, in [3], the pest or weed control at 50 ppm is 90 to 100% and the pest or weed control at 200 ppm was in the range of 90 to 100%. Also, the pest or weed control at 26 ppm in data set [4] is 90 to 100%. Further, in data set [5], the “FF SYM: % showing intoxicated symptoms at 25 μg/cm2 against fruit fly in dietary tests” value was “F (Less than 50)” and the “FF 25: % mortality at 25 μg/cm2 against fruit fly in dietary tests” value is “F (Less than 50)”. The “% Control at ppm, against sweet potato whitefly: 0.4-0.78” value in [6] (0.4-0.78 ppm, rundown assay) was “F (Less than 50)”. The “% Control at ppm, against sweet potato whitefly: 2-3.13” value in data set [6] (2-3.13 ppm, rundown assay) is given as “F (Less than 50)”. In addition, the “% Control at ppm, against sweet potato whitefly: 10-12.5” value in data set [6] (10-12.5 ppm, rundown assay) was “A (90-100)”. Besides, the “% Control at ppm, against sweet potato whitefly: 50” value in data set [6] (50 ppm, rundown assay) is “A (90-100)”. For the same compound, in data set [6], the pest or weed control at 200 ppm is 90 to 100%. Besides, the “BAW 50: % mortality at 50 μg/cm2 against beet armyworm in dietary tests” value in [7] is “G (Inactive)”. For the same compound, in data set [8], the “CEW 50: % mortality at 50 μg/cm2 against corn earworm in dietary tests” value is given as “G (Inactive)”. Besides, the “% Control at ppm, against green peach aphid: 0.049” value in data set [9] (0.049 ppm) is on record as “F (Less than 50)”. Also, the “% Control at ppm, against green peach aphid: 0.195” value in data set [9] (0.195 ppm) was “F (Less than 50)”. Moreover, the “% Control at ppm, against green peach aphid: 0.78” value in [9] (0.78 ppm) was “F (Less than 50)”. Besides, the “% Control at ppm, against green peach aphid: 3.12” value in [9] (3.12 ppm) is given as “F (Less than 50)”. For the same compound, the “% Control at ppm, against green peach aphid: 12.5” value in data set [9] (12.5 ppm) is reported as “A (90-100)”. Besides, in data set [9] (50 ppm), the “% Control at ppm, against green peach aphid: 50” value is reported as “A (90-100)”.
In the case of `O=[N+]([O-])N=S1(=O)CCCC1Cc1ccc(Cl)nc1` (stereo not shown) [Compound 35], in data set [1] (50 ppm), the “CPB 50: % control at 50 ppm against Colorado potato beetle in foliar spray tests” value is on record as “B (80-89)”. For the same compound, the pest or weed control at 0.01 mg in [2] was below 50%. Further, in data set [3], the pest or weed control at 50 ppm is 90 to 100% and the pest or weed control at 200 ppm lay within 90 to 100%. The pest or weed control at 26 ppm in data set [4] was in the range of 80 to 89%. Further, in data set [5], the “FF SYM: % showing intoxicated symptoms at 25 μg/cm2 against fruit fly in dietary tests” value is given as “D (60-69)” and the “FF 25: % mortality at 25 μg/cm2 against fruit fly in dietary tests” value is listed as “F (Less than 50)”. Moreover, the pest or weed control at 200 ppm in data set [6] fell in the range of 90 to 100%. Further, in data set [7], the “BAW 50: % mortality at 50 μg/cm2 against beet armyworm in dietary tests” value is recorded as “G (Inactive)”. Moreover, the “CEW 50: % mortality at 50 μg/cm2 against corn earworm in dietary tests” value in data set [8] is reported as “G (Inactive)”.
